From US11214594B2, “Antimicrobial peptide having synergistic antibacterial effect with antibiotics on multidrug resistant bacteria, and use thereof” (priority 2016, dated 2022)
Values after ≈ are worked out from the molar mass of the structure shown. Read-outs that look alike come from different tables or passages of the source. Where a SMILES comes first, the peptide text is derived from it.

Legend:
E. coli [1] = format: cell-based, Escherichia coli; settings: E. coli
Procedure, shortened: (§1)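 Antibiotic MIC came from antibiotic dilutions added to bacteria (2×10^6 CFU/ml, MH medium) already combined with peptide serially diluted 2:1 from its own MIC. Swapping the roles of the two agents gave the peptide MIC.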

MDREC 1229 [2] = format: cell-based, Escherichia coli
Procedure, shortened: as §1

E. coli [3] = test: microbe, parasite or virus in culture; format: cell-based, Escherichia coli; settings: 16 h
Procedure, shortened: (§2)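 MIC read-out = lowest peptide level with no bacterial proliferation. Strains diluted in MH medium to 2×10^6 CFU; peptide twofold serial dilutions in MH added 1:1 in microtiter wells.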

MDREC 1229 [4] = test: microbe, parasite or virus in culture; format: cell-based, Escherichia coli
Procedure, shortened: as §2

S. aureus = test: microbe, parasite or virus in culture; format: cell-based, Staphylococcus aureus
Procedure, shortened: as §2

MDREC 1229 [5] = test: MIC of antibiotic during combined treatment with antimicrobial peptide; format: cell-based, Escherichia coli
Experimental: Specifically, the strains described in [Table 2] were prepared and diluted with an MH medium such that the number of bacteria was 2×10^6 colony-forming units (CFUs) per 1 ml, 100 μl of the diluted strains was each aliquoted into a 96-well microtiter plate, and then 50 μl of a peptide solution diluted with the MH medium from the MIC value (solution diluted stepwise at 2: 1) was added to each well. Thereafter, the MIC value of each mixed solution was determined by diluting the antibiotic solution with the MH medium, adding 50 μl of the diluted solution to each well, and performing an experiment even under a reversed condition.

MDRAB 12035 = test: MIC of antimicrobial peptide during combined treatment with antibiotic; format: cell-based, Acinetobacter baumannii
Procedure, shortened: as §1

A. baumannii = test: as above; format: cell-based, Acinetobacter baumannii
Procedure, shortened: as §1

[6] = with Erythromycin […] (Conc./MIC 1)
[7] = peptide treatment concentration 1 μg/ml
[8] = peptide treatment concentration 2 μg/ml
[9] = peptide treatment concentration 4 μg/ml
[10] = peptide treatment concentration 6 μg/ml
[11] = peptide treatment concentration 8 μg/ml
[12] = peptide treatment concentration 16 μg/ml
[13] = peptide treatment concentration 32 μg/ml
[14] = peptide treatment concentration 64 μg/ml
[15] = erythromycin 4 μg/ml (Conc./MIC 1/8)
[16] = erythromycin 8 μg/ml (Conc./MIC 1/4)
[17] = erythromycin 16 μg/ml (Conc./MIC 1/2)
[18] = erythromycin 32 μg/ml (Conc./MIC 1)
[19] = vancomycin 512 μg/ml (Conc./MIC 1/2)
[20] = vancomycin 1024 μg/ml (Conc./MIC 1)

CC[C@H](C)[C@H](NC(=O)[C@H](CCCCN)NC(=O)[C@H](Cc1c[nH]c2ccccc12)NC(=O)[C@@H](N)CCCNC(=N)N)C(=O)N[C@@H](Cc1ccccc1)C(=O)N[C@@H](CCCCN)C(=O)N[C@@H](CCCCN)C(=O)N[C@H](C(=O)N1CCC[C@H]1C(=O)N[C@@H](CCCCN)C(=O)N[C@@H](Cc1ccccc1)C(=O)N[C@@H](CC(C)C)C(=O)N[C@@H](Cc1c[nH]cn1)C(=O)N[C@@H](CO)C(=O)N[C@@H](C)C(=O)N[C@@H](CCCCN)C(=O)N[C@@H](CCCCN)C(=O)N[C@@H](Cc1c[nH]c2ccccc12)C(N)=O)[C@@H](C)CC [PapMA-2, RWK IFK KIP KFL HSA KKW-NH2] (H-RWKIFKKIPKFLHSAKKW-NH2; N-terminus assumed)
Peptide MIC (E. coli [1]; [6]): 0 µg/mL | Peptide MIC (E. coli [1]; with Linezolid […] (Conc./MIC 1)): 0 µg/mL | Peptide MIC (E. coli [1]; with Vancomycin 1024 μg/ml (Conc./MIC 1)): 0 µg/mL | Peptide MIC (MDREC 1229 [2]; [6]): 0 µg/mL | Peptide MIC (MDREC 1229 [2]; with Linezolid 512 μg/ml (Conc./MIC 1)): 0 µg/mL | Minimal inhibitory concentration MIC (E. coli [3]): 64 µg/mL (≈ 27.3 µM) | Minimal inhibitory concentration MIC (MDREC 1229 [4]): 64 µg/mL (≈ 27.3 µM) | Minimal inhibitory concentration MIC (S. aureus): >128 µg/mL | Antibiotic MIC, Erythromycin (MDREC 1229 [5]; [7]): 64 µg/mL | Antibiotic MIC, Linezolid (MDREC 1229 [5]; [7]): >128 µg/mL | Antibiotic MIC, Vancomycin (MDREC 1229 [5]; [7]): >128 µg/mL | Antibiotic MIC, Erythromycin (MDREC 1229 [5]; [8]): 32 µg/mL | Antibiotic MIC, Linezolid (MDREC 1229 [5]; [8]): 64 µg/mL | Antibiotic MIC, Vancomycin (MDREC 1229 [5]; [8]): >128 µg/mL | Antibiotic MIC, Erythromycin (MDREC 1229 [5]; [9]): 16 µg/mL | Antibiotic MIC, Linezolid (MDREC 1229 [5]; [9]): 32 µg/mL | Antibiotic MIC, Vancomycin (MDREC 1229 [5]; [9]): 128 µg/mL | Antibiotic MIC, Erythromycin (MDREC 1229 [5]; [10]): 8 µg/mL | Antibiotic MIC, Linezolid (MDREC 1229 [5]; [10]): 32 µg/mL | Antibiotic MIC, Vancomycin (MDREC 1229 [5]; [10]): 128 µg/mL | Antibiotic MIC, Erythromycin (MDREC 1229 [5]; [11]): 2 µg/mL | Antibiotic MIC, Linezolid (MDREC 1229 [5]; [11]): 16 µg/mL | Antibiotic MIC, Vancomycin (MDREC 1229 [5]; [11]): 64 µg/mL | Antibiotic MIC, Erythromycin (MDREC 1229 [5]; [12]): 0.5 µg/mL | Antibiotic MIC, Linezolid (MDREC 1229 [5]; [12]): 8 µg/mL | Antibiotic MIC, Vancomycin (MDREC 1229 [5]; [12]): 16 µg/mL | Antibiotic MIC, Erythromycin (MDREC 1229 [5]; [13]): 0.125 µg/mL | Antibiotic MIC, Linezolid (MDREC 1229 [5]; [13]): 4 µg/mL | Antibiotic MIC, Vancomycin (MDREC 1229 [5]; [13]): 8 µg/mL | Antibiotic MIC, Erythromycin (MDREC 1229 [5]; [14]): 0 µg/mL | Antibiotic MIC, Linezolid (MDREC 1229 [5]; [14]): 0 µg/mL | Antibiotic MIC, Vancomycin (MDREC 1229 [5]; [14]): 0 µg/mL | Peptide MIC during treatment with erythromycin (MDRAB 12035; [15]): 4 µg/mL | Peptide MIC during treatment with erythromycin (MDRAB 12035; [16]): 4 µg/mL | Peptide MIC during treatment with erythromycin (MDRAB 12035; [17]): 2 µg/mL | Peptide MIC during treatment with erythromycin (MDRAB 12035; [18]): 0 µg/mL | Peptide MIC during treatment with linezolid (MDRAB 12035; linezolid 64 μg/ml (Conc./MIC 1/8)): 4 µg/mL | Peptide MIC during treatment with linezolid (MDRAB 12035; linezolid 512 μg/ml (Conc./MIC 1)): 0 µg/mL | Peptide MIC during treatment with linezolid (MDRAB 12035; linezolid […] (Conc./MIC 1/2)): 1 µg/mL | Peptide MIC during treatment with linezolid (MDRAB 12035; linezolid […] (Conc./MIC 1/4)): 2 µg/mL | Peptide MIC during treatment with vancomycin (MDRAB 12035; [19]): 1 µg/mL | Peptide MIC during treatment with vancomycin (MDRAB 12035; [20]): 0.25 µg/mL | Peptide MIC during treatment with vancomycin (MDRAB 12035; vancomycin […] (Conc./MIC 1/4)): 2 µg/mL | Peptide MIC during treatment with vancomycin (MDRAB 12035; vancomycin […] (Conc./MIC 1/8)): 4 µg/mL | Peptide MIC during treatment with antibiotic (A. baumannii; [15]): 4 µg/mL | Peptide MIC during treatment with antibiotic (A. baumannii; [16]): 4 µg/mL | Peptide MIC during treatment with antibiotic (A. baumannii; [17]): 1 µg/mL | Peptide MIC during treatment with antibiotic (A. baumannii; [18]): 0 µg/mL | Peptide MIC during treatment with antibiotic (A. baumannii; linezolid 32 μg/ml (Conc./MIC 1/8)): 4 µg/mL | Peptide MIC during treatment with antibiotic (A. baumannii; linezolid 64 μg/ml (Conc./MIC 1/4)): 4 µg/mL | Peptide MIC during treatment with antibiotic (A. baumannii; linezolid […] (Conc./MIC 1)): 0 µg/mL | Peptide MIC during treatment with antibiotic (A. baumannii; linezolid […] (Conc./MIC 1/2)): 0.5 µg/mL | Peptide MIC during treatment with antibiotic (A. baumannii; [19]): 0.25 µg/mL | Peptide MIC during treatment with antibiotic (A. baumannii; [20]): 0 µg/mL | Peptide MIC during treatment with antibiotic (A. baumannii; vancomycin […] (Conc./MIC 1/4)): 0.5 µg/mL
